{"source": "patent US12528807B2", "about": "“Solid forms of {6-[(2-amino-3-chloropyridin-4-yl)sulfanyl]-3-[(3S,4S)-4-amino-3-methyl-2-oxa-8-azaspiro[4.5]decan-8-yl]-5-methylpyrazin-2-yl} methanol, a SHP2 inhibitor” (Revolution Medicines, Inc., priority 2019, dated 2026)", "experiment": "Relative thermodynamic stability of the anhydrous polymorphs and transition temperatures between them (thermal techniques)", "assay_type": "physicochemical", "conditions": "for Temperature at which the form is thermodynamically (physically) stable: approximate", "method": "Forms A, B, C, and D are anhydrous polymorphs of Compound 1. Thermal techniques provide data that the relative stability of the forms change with temperature. Both Forms A and C are enantiotropically related to each other and to Form D; Form A is thermodynamically stable above approximately 80° C., Form C is the stable form between approximately 80 and 43° C., and Form D is physically stable below approximately 43° C. […]\nDifferential scanning calorimetry performed using TA instruments Q2000: Temperature calibration was performed using NIST-traceable indium metal. The sample was placed into an aluminum Tzero crimped pan and the weight was accurately recorded. A weighed aluminum pan configured as the sample pan was placed on the reference side of the cell. The samples were analyzed from −30 to 250° C. at a ramp rate of 10° C./min.\nDifferential scanning calorimetry performed using Mettler-Toledo DSC3+: Temperature calibration was performed using adamantane, phenyl salicylate, indium, tin, and zinc. The sample was placed into a hermetically sealed or an open aluminum DSC pan, and the weight was accurately recorded. A weighed aluminum pan configured as the sample pan was placed on the reference side of the cell. The samples were analyzed from −30 to 250° C. at a ramp rate of 10° C./min. Although thermograms are plotted by reference temperature (x-axis), results are reported according to sample temperatures.", "data": [{"smiles": "Cc1nc(N2CCC3(CC2)CO[C@@H](C)[C@H]3N)c(CO)nc1Sc1ccnc(N)c1Cl", "note": "[Compound 1 Form A, {6-[(2-amino-3-chloropyridin-4-yl)sulfanyl]-3-[(3S,4S)-4-amino-3-methyl-2-oxa-8-azaspiro[4.5]decan-8-yl]-5-methylpyrazin-2-yl}methanol]", "values": [{"measurement": "Conversion between Forms A, C, and D upon reaching the corresponding relevant temperatures", "value": "immediate (and reversible)"}, {"measurement": "Relative Thermodynamic Stability of Polymorphs", "setting": "above ~80° C.", "value": "A > (C and D and B)"}, {"measurement": "Temperature at which the form is thermodynamically (physically) stable", "value": "> 80", "unit": "°C"}, {"measurement": "Temperature at which the form is thermodynamically (physically) stable", "setting": "listed as Form A", "value": "> 80", "unit": "°C"}, {"measurement": "Relative Thermodynamic Stability of Polymorphs", "setting": "between ~43 and ~65° C.", "value": "C > D > A > B"}, {"measurement": "Relative Thermodynamic Stability of Polymorphs", "setting": "between ~65 and ~80° C.", "value": "C > A > (D and B)"}, {"measurement": "Relationship to Form B (table of estimated transition point temperatures)", "setting": "relative to Form B", "value": "monotropic"}, {"measurement": "Relative Thermodynamic Stability of Polymorphs", "setting": "subambient up to ~43° C.", "value": "D > C > A > B"}, {"measurement": "Estimated Transition Point Temperature between Enantiotropic Polymorphs, to Form C", "setting": "transition to Form C", "value": "~80", "unit": "°C"}, {"measurement": "Estimated Transition Point Temperature between Enantiotropic Polymorphs, to Form D", "value": "~65", "unit": "°C"}]}, {"smiles": "Cc1nc(N2CCC3(CC2)CO[C@@H](C)[C@H]3N)c(CO)nc1Sc1ccnc(N)c1Cl", "note": "[Compound 1 Form B, {6-[(2-amino-3-chloropyridin-4-yl)sulfanyl]-3-[(3S,4S)-4-amino-3-methyl-2-oxa-8-azaspiro[4.5]decan-8-yl]-5-methylpyrazin-2-yl}methanol]", "values": [{"measurement": "Thermodynamic stability in words", "value": "metastable form at all temperatures"}]}, {"smiles": "Cc1nc(N2CCC3(CC2)CO[C@@H](C)[C@H]3N)c(CO)nc1Sc1ccnc(N)c1Cl", "note": "[Compound 1 Form C, {6-[(2-amino-3-chloropyridin-4-yl)sulfanyl]-3-[(3S,4S)-4-amino-3-methyl-2-oxa-8-azaspiro[4.5]decan-8-yl]-5-methylpyrazin-2-yl}methanol]", "values": [{"measurement": "Conversion between Forms A, C, and D upon reaching the corresponding relevant temperatures", "value": "immediate (and reversible)"}, {"measurement": "Relative Thermodynamic Stability of Polymorphs", "setting": "above ~80° C.", "value": "A > (C and D and B)"}, {"measurement": "Relative Thermodynamic Stability of Polymorphs", "setting": "between ~43 and ~65° C.", "value": "C > D > A > B"}, {"measurement": "Relative Thermodynamic Stability of Polymorphs", "setting": "between ~65 and ~80° C.", "value": "C > A > (D and B)"}, {"measurement": "Relative Thermodynamic Stability of Polymorphs", "setting": "subambient up to ~43° C.", "value": "D > C > A > B"}, {"measurement": "Estimated Transition Point Temperature between Enantiotropic Polymorphs, to Form D", "value": "~43", "unit": "°C"}]}, {"smiles": "Cc1nc(N2CCC3(CC2)CO[C@@H](C)[C@H]3N)c(CO)nc1Sc1ccnc(N)c1Cl", "note": "[Compound 1 Form D, {6-[(2-amino-3-chloropyridin-4-yl)sulfanyl]-3-[(3S,4S)-4-amino-3-methyl-2-oxa-8-azaspiro[4.5]decan-8-yl]-5-methylpyrazin-2-yl}methanol]", "values": [{"measurement": "Conversion between Forms A, C, and D upon reaching the corresponding relevant temperatures", "value": "immediate (and reversible)"}, {"measurement": "Relative Thermodynamic Stability of Polymorphs", "setting": "above ~80° C.", "value": "A > (C and D and B)"}, {"measurement": "Temperature at which the form is thermodynamically (physically) stable", "value": "< 43", "unit": "°C"}, {"measurement": "Temperature at which the form is thermodynamically (physically) stable", "setting": "listed as Form D", "value": "< 43", "unit": "°C"}, {"measurement": "Relative Thermodynamic Stability of Polymorphs", "setting": "between ~43 and ~65° C.", "value": "C > D > A > B"}, {"measurement": "Relative Thermodynamic Stability of Polymorphs", "setting": "between ~65 and ~80° C.", "value": "C > A > (D and B)"}, {"measurement": "Relative Thermodynamic Stability of Polymorphs", "setting": "subambient up to ~43° C.", "value": "D > C > A > B"}]}]}
